ChEMBL document CHEMBL5244219, “Recent developments of quinolone-based derivatives and their activities against Escherichia coli” (Eur J Med Chem, 2018)
Values after ≈ are worked out from the molar mass of the structure shown.

system: Escherichia coli; assay: Antibacterial activity against Escherichia coli assessed as bacterial growth inhibition; assay type: functional; conditions: not given

Structure (SMILES)	MIC [µg/mL]
CC1Cn2cc(C(=O)O)c(=O)c3cc(F)c(N4CCN(Cc5ccc(F)cc5F)CC4)c(c32)S1 (stereo unspecified)	0.12 (≈ 0.245 µM)
O=C(O)c1cn2c3c(c(Cl)c(F)cc3c1=O)SC(c1cccc(F)c1)C2 (stereo unspecified)	0.12 (≈ 0.305 µM)
CC1Cn2cc(C(=O)O)c(=O)c3cc(F)c(N4CCN(C)CC4)c(c32)S1 (stereo unspecified)	0.12 (≈ 0.318 µM)
CC1Cn2cc(C(=O)O)c(=O)c3cc(F)c(Cl)c(c32)S1 (stereo unspecified)	0.12 (≈ 0.382 µM)
CC1Cn2cc(C(=O)O)c(=O)c3cc(F)c(N4CCN(Cc5cccc(F)c5)CC4)c(c32)S1 (stereo unspecified)	0.12 (≈ 0.254 µM)
CC1Cn2cc(C(=O)O)c(=O)c3cc(F)c(N4CCN(S(=O)(=O)c5ccc(F)cc5)CC4)c(c32)S1 (stereo unspecified)	0.12 (≈ 0.23 µM)
CCNCC1CCN(c2c(F)cc3c(=O)c(C(=O)O)cn4c3c2SC(C)C4)C1 (stereo unspecified)	0.12 (≈ 0.296 µM)
CC1Cn2cc(C(=O)O)c(=O)c3cc(F)c(N4CCN(c5ccccn5)CC4)c(c32)S1 (stereo unspecified)	0.12 (≈ 0.272 µM)
O=C(O)c1cn2c3c(c(N4CCNCC4)c(F)cc3c1=O)SC(c1ccc(F)cc1)C2 (stereo unspecified)	0.12 (≈ 0.271 µM)
CC1Cn2cc(C(=O)O)c(=O)c3cc(F)c(N4CCN(c5ccc(F)cc5)CC4)c(c32)S1 (stereo unspecified)	0.12 (≈ 0.262 µM)
CC1Cn2cc(C(=O)O)c(=O)c3cc(F)c(N4CCCNCC4)c(c32)S1 (stereo unspecified)	0.12 (≈ 0.318 µM)
CC1Cn2cc(C(=O)O)c(=O)c3cc(F)c(N4CCNCC4)c(c32)S1 (stereo unspecified)	0.25 (≈ 0.688 µM)
CC1Cn2cc(C(=O)O)c(=O)c3cc(F)c(N4CCCC4)c(c32)S1 (stereo unspecified)	0.12 (≈ 0.344 µM)
CC1Cn2cc(C(=O)O)c(=O)c3cc(F)c(-n4ccnc4)c(c32)S1 (stereo unspecified)	0.12 (≈ 0.347 µM)
O=C(O)c1cn2c3c(c(Cl)c(F)cc3c1=O)SC(c1ccc(F)cc1)C2 (stereo unspecified)	0.12 (≈ 0.305 µM)
CN1CCN(c2c(F)cc3c(=O)c(C(=O)O)cn4c3c2SC(c2ccc(F)cc2)C4)CC1 (stereo unspecified)	0.12 (≈ 0.262 µM)
CC1Cn2cc(C(=O)O)c(=O)c3cc(F)c(N4CCN(Cc5ccccc5C(F)(F)F)CC4)c(c32)S1 (stereo unspecified)	0.12 (≈ 0.23 µM)

Structure (SMILES)	MIC [µg/mL]
O=C(O)c1cn2c3c(c(Cl)c(F)cc3c1=O)SC(c1ccccc1F)C2 (stereo unspecified)	0.12 (≈ 0.305 µM)
CC1Cn2cc(C(=O)O)c(=O)c3cc(F)c(N4CCN(C=O)CC4)c(c32)S1 (stereo unspecified)	0.12 (≈ 0.307 µM)
O=C(O)c1cn([C@@H]2C[C@@H]2F)c2cc(N3CCN(Cn4nc(-c5ccncc5)n(-c5ccccc5)c4=S)CC3)c(F)cc2c1=O	≤ 0.04
CC(=O)c1cc2cc([N+](=O)[O-])ccc2n(/N=C/c2cccc([N+](=O)[O-])c2)c1=O	1.6 (≈ 4.21 µM)
COc1cc(OC)cc(-c2nn(CN3CCN(c4cc5c(cc4F)c(=O)c(C(=O)O)cn5[C@@H]4C[C@@H]4F)CC3)c(=S)n2Cc2ccccc2)c1	≤ 0.04
O=C(O)c1cn([C@@H]2C[C@@H]2F)c2cc(N3CCN(Cn4nc(-c5ccc6ccccc6c5)n(Cc5ccccc5)c4=S)CC3)c(F)cc2c1=O	≤ 0.04
CC(=O)c1cc2ccccc2n(/N=C/c2cccc([N+](=O)[O-])c2)c1=O	1.6 (≈ 4.77 µM)
CC(=O)c1cc2ccccc2n(/N=C/c2ccc(C)cc2)c1=O	1.6 (≈ 5.26 µM)
CC(=O)c1cc2cc(Cl)ccc2n(/N=C/c2ccccc2[N+](=O)[O-])c1=O	1.6 (≈ 4.33 µM)
COc1cc(/C=N/n2c(=O)c(C(C)=O)cc3cc([N+](=O)[O-])ccc32)cc(OC)c1OC	1.6 (≈ 3.76 µM)
CC(=O)c1cc2ccccc2n(/N=C/c2ccccc2[N+](=O)[O-])c1=O	1.6 (≈ 4.77 µM)
CC(=O)c1cc2cc(Cl)ccc2n(/N=C/c2ccc(O)cc2)c1=O	1.6 (≈ 4.7 µM)
CC(=O)c1cc2ccccc2n(/N=C/c2ccccc2Cl)c1=O	1.6 (≈ 4.93 µM)
CC(=O)c1cc2ccccc2n(/N=C/c2ccc(O)cc2)c1=O	1.6 (≈ 5.22 µM)
CC(=O)c1cc2cc(Cl)ccc2n(/N=C/c2ccc(C)cc2)c1=O	1.6 (≈ 4.72 µM)
CC1Cn2cc(C(=O)O)c(=O)c3cc(F)c(N4C(C)CNCC4C)c(c32)S1 (stereo unspecified)	0.12 (≈ 0.307 µM)
COc1cc(/C=N/n2c(=O)c(C(C)=O)cc3cc(Cl)ccc32)cc(OC)c1OC	1.6 (≈ 3.86 µM)

system: Escherichia coli; assay: Antibacterial activity against Escherichia coli assessed as bacterial growth inhibition measured after 18 to 24 hrs by broth microdilution method; assay type: functional; conditions: time 18-24 hrs

Structure (SMILES)	MIC [µg/mL]
O=C(O)c1cn(-c2ccc(O)cc2)c2cc(N3CC4CC3CN4)c(F)cc2c1=O (stereo unspecified)	< 0.05
N[C@@H]1CN(c2cc3c(cc2F)c(=O)c(C(=O)O)cn3-c2ccc(O)cc2)CC12CC2	< 0.05
O=C(O)c1cn(-c2ccc(O)cc2)c2cc(N3CCNCC3)c(F)cc2c1=O	< 0.05
O=C(O)c1cn(-c2ccc(O)cc2)c2nc(N3CC4CCCNC4C3)c(F)cc2c1=O (stereo unspecified)	< 0.05
C[C@H]1CN(c2nc3c(cc2F)c(=O)c(C(=O)O)cn3-c2ccc(O)cc2)C[C@H]1N	< 0.05
N[C@@H]1CCC[C@@H]2CN(c3cc4c(cc3F)c(=O)c(C(=O)O)cn4-c3ccc(O)cc3)C[C@@H]21	< 0.05
NCC1CCN(c2nc3c(cc2F)c(=O)c(C(=O)O)cn3-c2ccc(O)cc2)C1 (stereo unspecified)	< 0.05
C[C@H](N)[C@@H]1CCN(c2nc3c(cc2F)c(=O)c(C(=O)O)cn3-c2ccc(O)cc2)C1	< 0.05
NC1CCN(c2cc3c(cc2F)c(=O)c(C(=O)O)cn3-c2ccc(O)cc2)C1 (stereo unspecified)	< 0.05
COc1c(N2CC3CC2CN3)c(F)cc2c(=O)c(C(=O)O)cn(-c3ccc(O)cc3)c12 (stereo unspecified)	< 0.05
CN1CCN(c2nc3c(cc2F)c(=O)c(C(=O)O)cn3-c2ccc(O)cc2)CC1	< 0.05
C[C@@H](N)[C@H]1CCN(c2nc3c(cc2F)c(=O)c(C(=O)O)cn3-c2ccc(O)cc2)C1	< 0.05
N[C@H]1CN(c2nc3c(cc2F)c(=O)c(C(=O)O)cn3-c2ccc(O)cc2)CC12CC2	< 0.05
COc1c(N2CCC(CN)C2)c(F)cc2c(=O)c(C(=O)O)cn(-c3ccc(O)cc3)c12 (stereo unspecified)	< 0.05
COc1c(N2CCN(C)CC2)c(F)cc2c(=O)c(C(=O)O)cn(-c3ccc(O)cc3)c12	< 0.05
COc1c(N2CCC(N)C2)c(F)cc2c(=O)c(C(=O)O)cn(-c3ccc(O)cc3)c12 (stereo unspecified)	< 0.05
COc1c(N2CCNCC2)c(F)cc2c(=O)c(C(=O)O)cn(-c3ccc(O)cc3)c12	< 0.05
C[C@@H]1CN(c2cc3c(cc2F)c(=O)c(C(=O)O)cn3-c2ccc(O)cc2)C[C@H]1N	< 0.05
COc1c(N2CC3CCCNC3C2)c(F)cc2c(=O)c(C(=O)O)cn(-c3ccc(O)cc3)c12 (stereo unspecified)	< 0.05
C[C@@H]1CN(c2nc3c(cc2F)c(=O)c(C(=O)O)cn3-c2ccc(O)cc2)C[C@H](C)N1	< 0.05
COc1c(N2C[C@@H]3[C@@H](N)[C@@H]3C2)c(F)cc2c(=O)c(C(=O)O)cn(-c3ccc(O)cc3)c12	< 0.05
O=C(O)c1cn(-c2ccc(O)cc2)c2nc(N3CC4CC3CN4)c(F)cc2c1=O (stereo unspecified)	< 0.05
O=C(O)c1cn(-c2ccc(O)cc2)c2nc(N3CCNCC3)c(F)cc2c1=O	< 0.05
C[C@@H]1C[C@H](N)CN1c1cc2c(cc1F)c(=O)c(C(=O)O)cn2-c1ccc(O)cc1	< 0.05

Structure (SMILES)	MIC [µg/mL]
CN1CCC2CN(c3nc4c(cc3F)c(=O)c(C(=O)O)cn4-c3ccc(O)cc3)CC21 (stereo unspecified)	< 0.05
C[C@H]1CN(c2cc3c(cc2F)c(=O)c(C(=O)O)cn3-c2ccc(O)cc2)C[C@H]1N	< 0.05
N[C@@H]1[C@H]2CN(c3nc4c(cc3F)c(=O)c(C(=O)O)cn4-c3ccc(O)cc3)C[C@@H]12	< 0.05
N[C@@H]1CN(c2nc3c(cc2F)c(=O)c(C(=O)O)cn3-c2ccc(O)cc2)CC12CC2	< 0.05
C[C@@H]1CN(c2cc3c(cc2F)c(=O)c(C(=O)O)cn3-c2ccc(O)cc2)C[C@H](C)N1	< 0.05
N[C@@H]1[C@H]2CN(c3cc4c(cc3F)c(=O)c(C(=O)O)cn4-c3ccc(O)cc3)C[C@@H]12	< 0.05
N[C@@H]1CCC[C@@H]2CN(c3nc4c(cc3F)c(=O)c(C(=O)O)cn4-c3ccc(O)cc3)C[C@@H]21	< 0.05
C[C@H](N)[C@H]1CCN(c2cc3c(cc2F)c(=O)c(C(=O)O)cn3-c2ccc(O)cc2)C1	< 0.05
N[C@H]1CN(c2cc3c(cc2F)c(=O)c(C(=O)O)cn3-c2ccc(O)cc2)CC12CC2	< 0.05
C[C@@H]1CN(c2nc3c(cc2F)c(=O)c(C(=O)O)cn3-c2ccc(O)cc2)C[C@H]1N	< 0.05
C[C@H](N)[C@@H]1CCN(c2cc3c(cc2F)c(=O)c(C(=O)O)cn3-c2ccc(O)cc2)C1	< 0.05
COc1c(N2C[C@@H](N)C3(CC3)C2)c(F)cc2c(=O)c(C(=O)O)cn(-c3ccc(O)cc3)c12	< 0.05
C[C@@H](N)[C@H]1CCN(c2cc3c(cc2F)c(=O)c(C(=O)O)cn3-c2ccc(O)cc2)C1	< 0.05
COc1c(N2C[C@@H](C)N[C@@H](C)C2)c(F)cc2c(=O)c(C(=O)O)cn(-c3ccc(O)cc3)c12	< 0.05
C[C@H](N)[C@H]1CCN(c2nc3c(cc2F)c(=O)c(C(=O)O)cn3-c2ccc(O)cc2)C1	< 0.05
NCC1CCN(c2cc3c(cc2F)c(=O)c(C(=O)O)cn3-c2ccc(O)cc2)C1 (stereo unspecified)	< 0.05
O=C(O)c1cn(-c2ccc(O)cc2)c2cc(N3CC4CCCNC4C3)c(F)cc2c1=O (stereo unspecified)	< 0.05
CC1CNCCN1c1nc2c(cc1F)c(=O)c(C(=O)O)cn2-c1ccc(O)cc1 (stereo unspecified)	< 0.05
NC1CCN(c2nc3c(cc2F)c(=O)c(C(=O)O)cn3-c2ccc(O)cc2)C1 (stereo unspecified)	< 0.05
COc1c(N2C[C@@H](N)[C@@H](C)C2)c(F)cc2c(=O)c(C(=O)O)cn(-c3ccc(O)cc3)c12	< 0.05
COc1c(N2CC3CCN(C)C3C2)c(F)cc2c(=O)c(C(=O)O)cn(-c3ccc(O)cc3)c12 (stereo unspecified)	< 0.05
COc1c(N2C[C@@H](C)[C@H](N)C2)c(F)cc2c(=O)c(C(=O)O)cn(-c3ccc(O)cc3)c12	< 0.05
CN1CCC2CN(c3cc4c(cc3F)c(=O)c(C(=O)O)cn4-c3ccc(O)cc3)CC21 (stereo unspecified)	< 0.05
